# Assay results from patent publication US20060063784A1, “Method of using substituted pyrazolo [1,5-a] pyrimidines” (priority 2004, published 2006).
# Where two headings read alike, the source gives them in different places.
# How the values were obtained:
# [1] = tested on: 80S14 (p21-deficient) cells; test: Cytotoxicity assay using isogenic cell lines: IC50 in 80S14 (p21-deficient) cells, SRB; format: cell-based, human; details: Homo sapiens
# Procedure, shortened: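 80S14 (p21-deficient) cells seeded at 12,000 cells/well overnight, then exposed 5 days at 37 °C to serial dilutions (5 pM–50 μM or 170 pg/ml–10 μg/ml). TCA-fixed, sulforhodamine B-stained, absorbance at 560 nm; IC50 taken from cytotoxicity curves versus untreated controls.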
# LoVo Colon cell line = test: Cytotoxicity assay using LoVo colon cell line, SRB; format: cell-based; details: read-out: Inhibition of LoVo
# Procedure, shortened: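 LoVo cells (4000/well, RPMI 1640 with 10% FBS, 37 °C, 7% CO2) seeded overnight, then exposed 4 days to serial dilutions spanning 5 pM-20 μM or 170 pg/ml-10 μg/ml. Survival by SRB staining; IC50 from curves relative to untreated controls.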
# [2] = 120 h, 80S14 p21-deficient cells, 5 days incubation, SRB, read-out: IC50 for 80SI4
# [3] = Homo sapiens, 96 h, LoVo colon cells, 4 days incubation, SRB
# [4] = 80S14, 120 h, read-out: IC50 for 80S14 (uM)
# [5] = 120 h, 80S14 (p21-deficient) cells, 5 days, SRB, class symbols, read-out: IC50 for 80S14
# [6] = Homo sapiens, 96 h, Cellular activity in LoVo cell, 4 days incubation, SRB
Compound,"IC50 [1, 5]",IC50 (LoVo Colon cell line; [6]),further results
"O=C(CC1CCCCCC1)Nc1cccc(-c2ccnc3c(C(=O)c4cccs4)cnn23)c1 [Example 75, 2-cycloheptyl-N-{3-[3-(thien-2-ylcarbonyl)pyrazolo[1,5-a]pyrimidin-7-yl]phenyl}acetamide]",–,–,"IC50 [1, 2]: < 1 µM; IC50 (LoVo Colon cell line; [3]): < 0.1 µM"
"CC(C)CC(=O)Nc1cccc(-c2ccnc3c(C(=O)c4ccsc4)cnn23)c1 [Example 297, 3-Methyl-N-{3-[3-(3-thienylcarbonyl)pyrazolo[1,5-a]pyrimidin-7-yl]phenyl}butanamide]",–,–,"IC50 [1, 4]: < 1 µM; IC50 (LoVo Colon cell line; Homo sapiens, LoVo, 96 h): < 0.1 µM"
"O=C(O)c1cc(Cl)c(Cl)cc1C(=O)Nc1cccc(-c2ccnc3c(C(=O)c4cccs4)cnn23)c1 [Example 446, 4,5-Dichloro-2-[({3-[3-(thien-2-ylcarbonyl)pyrazolo[1,5-a]pyrimidin-7-yl]phenyl}amino)carbonyl]benzoic acid]",10 to 50 µM,1 to 20 µM,–
"CC(C)CC(=O)Nc1cccc(-c2ccnc3c(-c4ccc5c(c4)OCO5)cnn23)c1 [Example 481, N-{3-[3-(1,3-Benzodioxol-5-yl)pyrazolo[1,5-a]pyrimidin-7-yl]phenyl}-3-methylbutanamide]",1 to 10 µM,0.1 to 1 µM,–
"O=C(Nc1cccc(-c2ccnc3c(C(=O)c4cccs4)cnn23)c1)NC1CCCCC1 [Example 353, N-Cyclohexyl-N′-{3-[3-(thien-2-ylcarbonyl)pyrazolo[1,5-a]pyrimidin-7-yl]phenyl}urea]",< 1 µM,–,"IC50 (LoVo Colon cell line; Cellular activity in LoVo cell, 4 days incubation, SRB): < 0.1 µM"
"O=C(c1cccs1)c1cnn2c(-c3ccc(Cl)nc3)ccnc12 [Example 373, [7-(6-Chloropyridin-3-yl)pyrazolo[1,5-a]pyrimidin-3-yl](thien-2-yl)methanone]",10 to 50 µM,1 to 20 µM,–
"O=C(Nc1cccc(-c2ccnc3c(C(=O)c4cccs4)cnn23)c1)NC1CC1 [Example 169, N-cyclopropyl-N′-{3-[3-(thien-2-ylcarbonyl)pyrazolo[1,5-a]pyrimidin-7-yl]phenyl}urea]",–,–,"IC50 [1, 2]: 1 to 10 µM; IC50 (LoVo Colon cell line; [3]): 0.1 to 1 µM"
"COc1ccccc1C(=O)Nc1cccc(-c2ccnc3c(C(=O)c4cccs4)cnn23)c1 [Example 93, 2-methoxy-N-{3-[3-(thien-2-ylcarbonyl)pyrazolo[1,5-a]pyrimidin-7-yl]phenyl}benzamide]",–,–,"IC50 [1, 2]: < 1 µM; IC50 (LoVo Colon cell line; [3]): < 0.1 µM"
"CCCCn1nnc(-c2cccc(-c3ccnc4c(C(=O)c5cccs5)cnn34)c2)n1 [Example 506, {7-[3-(2-Butyl-2H-tetraazol-5-yl)phenyl]pyrazolo[1,5-a]pyrimidin-3-yl) (thien-2-yl)methanone]",< 1 µM,< 0.1 µM,–
"O=C(c1cccs1)c1cnn2c(-c3cccc(NC(=O)C4CCCCC4)c3)ccnc12 [Example 282, N-{3-[3-(2-Thienylcarbonyl)pyrazolo[1,5-a]pyrimidin-7-yl]phenyl}cyclohexanecarboxamide]",< 1 µM,0.1 to 1 µM,–
"O=C(CC1CCCC1)Nc1cccc(-c2ccnc3c(C(=O)c4ccco4)cnn23)c1 [Example 303, 2-Cyclopentyl-N-{3-[3-(2-furoyl)pyrazolo[1,5-a]pyrimidin-7-yl]phenyl}acetamide]",< 1 µM,< 0.1 µM,–
"O=C(Nc1cc(-c2ccnc3c(C(=O)c4cccs4)cnn23)ccc1F)c1ccccc1F [Example 375, 2-fluoro-N-{2-fluoro-5-[3-(thien-2-ylcarbonyl)pyrazolo[1,5-a]pyrimidin-7-yl]phenyl}benzamide]",< 1 µM,< 0.1 µM,–
"O=C(c1cccs1)c1cnn2c(-c3cccc(-c4ccc(CNCCN5CCOCC5)cc4)c3)ccnc12 [Example 461, [7-(4′-{[(2-Morpholin-4-ylethyl)amino]methyl}-1,1′-biphenyl-3-yl)pyrazolo[1,5-a]pyrimidin-3-yl](thien-2-yl)methanone]",1 to 10 µM,0.1 to 1 µM,–
"O=C(Nc1cccc(-c2ccnc3c(C(=O)c4cccs4)cnn23)c1)c1ccccc1C(F)(F)F [Example 96, N-{3-[3-(thien-2-ylcarbonyl)pyrazolo[1,5-a]pyrimidin-7-yl]phenyl}-2-(trifluoromethyl)benzamide]",–,–,"IC50 [1, 2]: < 1 µM; IC50 (LoVo Colon cell line; [3]): < 0.1 µM"
"N#CN=C(Nc1cccc(-c2ccnc3c(C(=O)c4cccs4)cnn23)c1)Oc1ccccc1 [Example 386, Phenyl N′-cyano-N-{3-[3-(thien-2-ylcarbonyl)pyrazolo[1,5-a]pyrimidin-7-yl]phenyl}imidocarbamate]",1 to 10 µM,1 to 20 µM,–
"O=C(c1cccs1)c1cnn2c(-c3cccc(-c4ccc(CO)cc4)c3)ccnc12 [Example 452, {7-[4′-(Hydroxymethyl)-1,1′-biphenyl-3-yl]pyrazolo[1,5-a]pyrimidin-3-yl}(thien-2-yl)methanone]",< 1 µM,< 0.1 µM,–

Compound,"IC50 [1, 5]",IC50 (LoVo Colon cell line; [6]),further results
"Cc1ccccc1C(=O)Nc1cccc(-c2ccnc3c(C(=O)c4cccs4)cnn23)c1 [Example 94, 2-methyl-N-{3-[3-(thien-2-ylcarbonyl)pyrazolo[1,5-a]pyrimidin-7-yl]phenyl}benzamide]",–,–,"IC50 [1, 2]: < 1 µM; IC50 (LoVo Colon cell line; [3]): < 0.1 µM"
"O=C(c1cccs1)c1cnn2c(-c3cccc(NCC4CCCCC4)c3)ccnc12 [Example 379, (7-{3-[(Cyclohexylmethyl)amino]phenyl)pyrazolo[1,5-a]pyrimidin-3-yl)(thien-2-yl)methanone]",< 1 µM,< 0.1 µM,–
"CCNc1cccc(-c2ccnc3c(C(=O)c4cccs4)cnn23)c1 [Example 422, {7-[3-(Ethylamino)phenyl]pyrazolo[1,5-a]pyrimidin-3-yl}(thien-2-yl)methanone]",1 to 10 µM,0.1 to 1 µM,–
"O=C(c1cccs1)c1cnn2c(-c3ccc(F)c(N(C(=O)OCC(Cl)(Cl)Cl)C(=O)OCC(Cl)(Cl)Cl)c3)ccnc12 [Example 357, bis(2,2,2-Trichloroethyl) 2-fluoro-5-[3-(thien-2-ylcarbonyl)pyrazolo[1,5-a]pyrimidin-7-yl]phenylimidodicarbonate]",< 1 µM,< 0.1 µM,–
"O=C(Cc1ccncc1)Nc1cccc(-c2ccnc3c(C(=O)c4cccs4)cnn23)c1 [Example 427, 2-Pyridin-4-yl-N-{3-[3-(thien-2-ylcarbonyl)pyrazolo[1,5-a]pyrimidin-7-yl]phenyl}acetamide]",< 1 µM,1 to 20 µM,–
"CCOC(=S)Nc1cccc(-c2ccnc3c(C(=O)c4cccs4)cnn23)c1 [Example 332, O-Ethyl 3-[3-(thien-2-ylcarbonyl)pyrazolo[1,5-a]pyrimidin-7-yl]phenylthiocarbamate]",< 1 µM,< 0.1 µM,–
"CC(C)OC(=O)Nc1ccc(Cl)c(-c2ccnc3c(C(=O)c4cccs4)cnn23)c1 [Example 335, Isopropyl 4-chloro-3-[3-(thien-2-ylcarbonyl)pyrazolo[1,5-a]pyrimidin-7-yl]phenylcarbamate]",–,–,"IC50 [1, 4]: < 1 µM; IC50 (LoVo Colon cell line; Homo sapiens, LoVo, 96 h): 0.1 to 1 µM"
"CCCCCNC(=O)Nc1cccc(-c2ccnc3c(C(=O)c4cccs4)cnn23)c1 [Example 165, N-pentyl-N′-{3-[3-(thien-2-ylcarbonyl)pyrazolo[1,5-a]pyrimidin-7-yl]phenyl}urea]",–,–,"IC50 [1, 2]: < 1 µM; IC50 (LoVo Colon cell line; [3]): 0.1 to 1 µM"
"Cc1cc(C)cc(-c2cnn3c(-c4cccc(-c5nnn(Cc6cccnc6)n5)c4)ccnc23)c1 [Example 494, 3-(3,5-Dimethylphenyl)-7-{3-[2-(pyridin-3-ylmethyl)-2H-tetrazol-5-yl]phenyl}pyrazolo[1,5-a]pyrimidine]",1 to 10 µM,0.1 to 1 µM,–
"O=C(c1cccs1)c1cnn2c(-c3cccc(-c4ccn(Cc5ccccn5)n4)c3)ccnc12 [Example 517, (7-{3-[1-(Pyridin-2-ylmethyl)-1H-pyrazol-3-yl]phenyl}pyrazolo[1,5-a]pyrimidin-3-yl)(thien-2-yl)methanone]",< 1 µM,0.1 to 1 µM,–
"CCCNc1cccc(-c2ccnc3c(C(=O)c4cccs4)cnn23)c1 [Example 267, [7-[3-(Propylamino)phenyl]pyrazolo[1,5-a]pyrimidin-3-yl]-2-thienyl-methanone]",1 to 10 µM,0.1 to 1 µM,–
"O=C(c1cccs1)c1cnn2c(-c3cccc(-c4nnn(Cc5ccncc5)n4)c3)ccnc12 [Example 510, (7-{3-[2-(Pyridin-4-ylmethyl)-2H-tetraazol-5-yl]phenyl}pyrazolo[1,5-a]pyrimidin-3-yl)(thien-2-yl)methanone]",< 1 µM,< 0.1 µM,–
"O=C(Nc1cccc(-c2ccnc3c(C(=O)c4cccs4)cnn23)c1)c1cccnc1 [Example 290, N-{3-[3-(2-Thienylcarbonyl)pyrazolo[1,5-a]pyrimidin-7-yl]phenyl}nicotinamide]",< 1 µM,0.1 to 1 µM,–
"CC(CC(=O)O)CC(=O)Nc1cccc(-c2ccnc3c(C(=O)c4cccs4)cnn23)c1 (stereo not shown) [Example 445, 3-Methyl-5-oxo-5-({3-[3-(thien-2-ylcarbonyl)pyrazolo[1,5-a]pyrimidin-7-yl]phenyl}amino)pentanoic acid]",10 to 50 µM,1 to 20 µM,–
"CC(C)CC(=O)Nc1ccc(Cl)c(-c2ccnc3c(C(=O)c4cccs4)cnn23)c1 [Example 339, N-{4-Chloro-3-[3-(thien-2-ylcarbonyl)pyrazolo[1,5-a]pyrimidin-7-yl]phenyl}-3-methylbutanamide]",–,–,"IC50 [1, 4]: 1 to 10 µM; IC50 (LoVo Colon cell line; Homo sapiens, LoVo, 96 h): 0.1 to 1 µM"
"O=C(Cc1cccnc1)Nc1cccc(-c2ccnc3c(C(=O)c4cccs4)cnn23)c1 [Example 439, 2-Pyridin-3-yl-N-{3-[3-(thien-2-ylcarbonyl)pyrazolo[1,5-a]pyrimidin-7-yl]phenyl}acetamide]",1 to 10 µM,< 0.1 µM,–
